Laboratory results published in article PMC9968064, “First Synthesis of DBU-Conjugated Cationic Carbohydrate Derivatives and Investigation of Their Antibacterial and Antifungal Activity” (International Journal of Molecular Sciences, 2023).
Entries after “also recorded” stand apart in the source; their conditions may differ. Where two headings read alike, the source gives them in different places.

Experiments:
[1] = system: Escherichia coli (ATCC 8739); experiment: MIC determination (antibacterial susceptibility test, CLSI / Hungarian Pharmacopeia); format: cell-based; details: Escherichia coli, ATCC8739, tested range 6.25–100 µg/mL
Procedure: (§1) The antimicrobial activity of twenty-two cationic hexopyranoside-amidinium salts (3, 10, 11, 12, 21, 22, 23, 24, 29, 30, 32, 37, 38, 45, 46, 47, 48, 49, 50, 51, 52 and 53) were compared in susceptibility tests (Table 2). The effectiveness of all compounds was tested on Staphylococcus aureus ssp. aureus (ATCC 6538), Escherichia coli (ATCC 8739) and Candida albicans (ATCC 10231). We tested the antimicrobial activity of the compounds at the concentration range of 6.25–100 µg/mL.
(§2) The detection of the antibacterial and antifungal effects of the tested compounds and the determination of the minimum inhibitory concentration (MIC) were carried out based on the method of CLSI [48] and Hungarian Pharmacopeia (chapters VIII. 2.6.12–13.).
(§3) For the antimicrobial studies, we used three human pathogens as test organisms: Candida albicans (ATCC 10231), Staphylococcus aureus subspecies aureus (ATCC 6538) and Escherichia coli (ATCC 8739).
(§4) Staphylococcus aureus subspecies aureus and Escherichia coli were cultured on tryptic soya agar (TSA) for 18–24 h at 37 °C. Candida albicans was cultured on Sabouraud dextrose agar (SDA) for 18–24 h at 37 °C. To obtain cells for suspension, we made cell suspensions from Staph. aureus, E. coli and C. albicans with the cotton swab suspension technique. The dilution of suspension was then made with 0.85% NaCl solution, absorbance being set to A600nm = 0.06. a volume of 10 μL of these suspensions contained ~4.5–6.0 × 10^4 colony forming unit (CFU) (bacteria) and ~1.5–2.0 × 10^3 CFU for yeast.
(§5) Tested agents were diluted with DMSO; the concentration of stock solutions was 4 mg/mL; and to ensure sterility, the closed sample containers were incubated at 35 °C for 1 h. The highest final concentration was 100 μg/mL.
(§6) Testing was performed in 24-well plates, and cell suspensions were prepared with 0.85% NaCl solution. Stock solutions were made from the agents with DMSO (100%). Final concentrations of used compounds were 6.25–100 µg/mL. […] After inoculation, plates were incubated at 35 °C, and results were then read visually after 18–24 h. If microbial growth could not be detected, results were read visually after 72 h. If there was no growth after 72 h, incubation was continued till the fifth day of the experiment and the results were read visually and with plate reader at 600 nm after 120 h.
(§7) The MIC value of a compound was defined as the minimal concentration that inhibits the growth of bacteria and yeasts comparing to the control. The results of the antibacterial and antifungal tests were read visually after 24, 48, 72 and 120 h. The microbial growth was measured by plate reader at 600 nm after 120 h.

[2] = system: Staphylococcus aureus ssp. aureus (ATCC 6538); experiment: as above; format: cell-based; details: for MIC: Staphylococcus aureus, ATCC6538, tested range 6.25–100 µg/mL
Procedure: as §1, §2, §3, §4, §5, §6, §7

[3] = system: HaCaT (human keratinocyte) cell line; experiment: MTT viability test on HaCaT cells; format: cell-based; details: 24 h; for IC50: Homo sapiens, HaCaT, 50–3.125 µg/mL; for effect on HaCaT cell viability at antibacterially and antifungally active concentrations: ≤6.25 µg/mL
Procedure: The cytotoxic effect of six selected compounds (3, 10, 12, 21, 22 and 29) with promising antimicrobial activity was studied on HaCaT (human keratinocyte) cell lines. Using the MTT-test, we determined the viability of the cells (Figure 3), and the half maximal inhibitory concentration (IC50) values of the compounds are summarized in Table 4. The duration of tests was 24 h; the examined concentrations were: 50–25–12.5–6.25–3.125 µg/mL. The IC50 value of a compound was defined as the concentration that inhibits cell growth by 50% relative to the control. […], the medium containing the inhibitor was removed, and 10 μL MTT solution was added to the cells. The plates were then incubated for two hours at 37 °C. The medium from the wells was then carefully aspirated, and MTT formazan dissolved with 100 μL of DMSO aided by gentle agitation on a shaker. After 10 min at room temperature, the absorbances were read at 570 nm by an automatic plate reader. The percentage of viability reflecting the respiratory potential of the cell population in each well was expressed as (absorbance of treated cells/absorbance of control cells) × 100. IC50 values of tested agents were determined by Graphpad (Prism) semi-log line fitting (graphpad.com (8)). The MTT test was performed after treatment and removal of inhibitors followed by the addition of 10 μL of MTT solution to the cells. We tested the toxic effect of compounds 3, 10, 12, 21, 22 and 29 on HaCaT cell line. HaCaT is a spontaneously transformed, aneuploid keratinocyte, an adherent cell type derived from the epithelium of Human […] adult skin. The cell line was immortalized in 1986 under low calcium and high-temperature conditions. Cells were cultured in DMEM medium (iBiotech, Szigetszentmiklós, Hungary) containing 10% fetal bovine serum (FBS, iBiotech, Szigetszentmiklós, Hungary) and 1% antibiotic-antimycotic mix (Penicillin–Streptomycin–Neomycin).

[4] = system: rat red blood cells; experiment: Hemolytic activity on rat red blood cells; format: cell-based, Sprague-Dawley rat; details: 15 min, 37 °C; for hemolysis compared to negative control PBS: 6.25 µg/mL; for hemolysis (haemoglobin release): 50 and 100 µg/mL, comparable to water positive control
Procedure: The hemolytic activity of compounds 10 and 22 was determined on freshly isolated rat red blood cells (Figure 4).
Blood was collected from a Sprague-Dawley rat into an EDTA tube. Erythrocytes were separated from blood by centrifugation at 1800 rpm for 8 min, washed 3 times with phosphate buffered saline (PBS), and resuspended in PBS. Aliquots of the cell suspension with the respective red blood cell number of 7 × 10^7 were added to PBS containing increasing concentrations of the test compounds or the vehicle DMSO. After gently mixing, each mixture was incubated at 37 °C for 15 min. The released hemoglobin into the supernatant was separated by a rapid centrifugation at 5000 rpm for 5 min. Finally, the absorbance of the released hemoglobin was measured at 540 nm using a Multiskan Go (ThermoFisher, Waltham, MA, USA) microplate reader. The absorbance values were compared to the absorbance of the sample kept in purified water during the incubation as positive control and given as percent hemolysis.

[5] = system: Candida albicans (ATCC 10231); experiment: MIC determination (antifungal susceptibility test); format: cell-based; details: for MIC: Candida albicans
Procedure: as §1, §2, §3, §4, §5
Testing was performed in 24-well plates, and cell suspensions were prepared with 0.85% NaCl solution. Stock solutions were made from the agents with DMSO (100%). […] […] After inoculation, plates were incubated at 35 °C, and results were then read visually after 18–24 h. If microbial growth could not be detected, results were read visually after 72 h. If there was no growth after 72 h, incubation was continued till the fifth day of the experiment and the results were read visually and with plate reader at 600 nm after 120 h.
as §7

[6] = system: Lactobacillus plantarum subsp. plantarum (ATCC 14917); experiment: Membrane permeabilization by SYTOX green staining; format: cell-based; details: 6.25 µg/mL; for membrane permeabilization (cellular fluorescence of SYTOX green): Figure 5
Procedure: In membrane permeabilization experiments, the Gram-positive Lactobacillus plantarum was used to test the effect of compounds 10 and 22 at 6.25 µg/mL for 48 h. Bacterial cells were stained with SYTOX green (SG) fluorescent dye, which is impermeable on intact membranes but easily penetrates through compromised membranes.
Lactobacillus plantarum subsp. plantarum (ATCC 14917) was purchased from ATCC (Manassas, VA, USA). The membrane permeabilization ability of compounds 10 and 22 was tested on L. plantarum and determined in the brain heart infusion medium (BHI) (CliniChem Ltd., Budapest, Hungary). Bacterial cells were treated with the test compounds at the final concentration of 6.25 µg/mL and samples were taken at 1, 4, 8, 24 and 48 h. Samples were stained with SYTOX green fluorescent dye (ThermoFischer Scientific, Budapest, Hungary) at 1 µM final concentration for 30 min at 37 °C, and flow cytometric measurements were carried out with a Guava Easy Cyte 6HT-2L flow cytometer (Merck Ltd., Darmstadt, Germany). Green (525/30 nm) and red (695/50 nm) fluorescence channels were used to gate out the cells on a green versus red dot plot. The ratio of the SYTOX green (SG) positive bacterial cells was evaluated.

[7] = system: Escherichia coli (ATCC 8739); parameters: method as in PMID 24144185; details: reference antibiotics; cited from earlier work
[8] = system: Staphylococcus aureus ssp. aureus (ATCC 6538); parameters: method as in PMID 22866984; details: reference antibiotics; cited from earlier work
[9] = ATCC10231, 10× diluted, tested range 0.625–10.0 µg/mL, read-out: MIC Candida albicans (ATCC 10231), lower concentrations
[10] = ATCC10231, tested range 6.25–100 µg/mL, read-out: MIC Candida albicans (ATCC 10231)

Row | SMILES | MIC [1] [µg/mL] | MIC [2] [µg/mL] | cytotoxic effect on HaCaT cells (in words) [3] | IC50 [3] [µg/mL] | effect on HaCaT cell viability at antibacterially and antifungally active concentrations [3] | hemolysis compared to negative control PBS [4] | hemolysis (haemoglobin release) [4] | MIC [5, 9] [µg/mL] | MIC [5, 10] [µg/mL] | membrane permeabilization (cellular fluorescence of SYTOX green) [6] | ratio of SYTOX green (SG) positive cells ([6]; after 1 h of incubation) | ratio of SYTOX green (SG) positive cells ([6]; after 4 h of incubation) | MIC Escherichia coli (ATCC 8739) [7] | MIC Staphylococcus aureus (ATCC 6538) [8] | MIC Staphylococcus aureus (ATCC 6538) ([2]; tested range 6.25–100 µg/mL) [µg/mL] | MIC Candida albicans (ATCC 10231), lower concentrations ([5]; 10× diluted, tested range 0.625–10.0 µg/mL) [µg/mL]
1 | CO[C@H]1O[C@H](C[N+]2=C3CCCCCN3CCC2)[C@@H](OCc2ccccc2)[C@H](OC(=O)c2ccccc2)[C@H]1OC(=O)c1ccccc1 [Compound 3, 8-N-[methyl 6-deoxy-6-yl-2,3-di-O-benzoyl-4-O-benzyl-α-D-glucopyranoside]-1,8-diazabicyclo(5.4.0)undec-7-ene-iodide] | > 100 | 6.25 to 50 | strongest cytotoxic effect | 0.13 ± 0.06 | – | – | – | – | – | – | – | – | – | – | – | –
2 | c1ccc(CO[C@@H]2[C@H](OCc3ccccc3)[C@@H](Sc3ccccc3)O[C@H](C[N+]3=C4CCCCCN4CCC3)[C@H]2OCc2ccc3ccccc3c2)cc1 [Compound 22] | ≥ 100 | < 6.25 | only slight cytotoxicity; also recorded: greatly reduced toxicity | 10.3 ± 0.41 | hardly affected the cell viability | did not cause significant hemolysis | significantly increased the hemolysis; also recorded: significant haemoglobin release | 2.5 | < 6.25 | increased membrane permeabilization | increased the ratio of SG-positive cells | drastically increased | – | – | – | –
3 | CCS[C@H]1O[C@H](C[N+]2=C3CCCCCN3CCC2)[C@@H](OCc2ccc3ccccc3c2)[C@H](OC(=O)c2ccccc2)[C@H]1OCc1ccccc1 [Compound 12] | > 100 | < 6.25 | significant toxic effect; also recorded: cytotoxic | 4.26 ± 0.16 | – | – | – | – | – | – | – | – | – | – | – | –
4 | CNC(C)C1CCC(N)C(OC2C(N)CC(N)C(OC3OCC(C)(O)C(NC)C3O)C2O)O1 (stereo not shown) [Gentamicin] | – | – | – | – | – | – | – | – | – | – | – | – | 8 [42] µg/mL | 8 [43, 44, 45] µg/mL | – | –
5 | CCS[C@H]1O[C@H](C[N+]2=C3CCCCCN3CCC2)[C@@H](OCc2ccc3ccccc3c2)[C@@H](OCc2ccccc2)[C@H]1OCc1ccccc1 [Compound 29] | > 100 | 6.25 to 50 | only slight cytotoxicity; also recorded: greatly reduced toxicity | 11.9 ± 0.25 | – | – | – | 2.5 | < 6.25 | – | – | – | – | – | <12.5 | –
6 | CCS[C@H]1O[C@H](C[N+]2=C3CCCCCN3CCC2)[C@@H](OCc2ccc3ccccc3c2)[C@H](OCc2ccccc2)[C@H]1OCc1ccccc1 [Compound 10] | ≥ 100 | < 6.25 | only slight cytotoxicity; also recorded: greatly reduced toxicity | 15.3 ± 0.78 | hardly affected the cell viability | did not cause significant hemolysis | significantly increased the hemolysis; also recorded: significant haemoglobin release | 5 | < 6.25 | increased membrane permeabilization | increased the ratio of SG-positive cells | drastically increased | – | – | – | 5.0
7 | c1ccc(CO[C@H]2[C@@H](OCc3ccc4ccccc4c3)[C@H](OCc3ccccc3)[C@@H](C[N+]3=C4CCCCCN4CCC3)O[C@@H]2Sc2ccccc2)cc1 [Compound 21] | > 100 | 6.25 to 50 | significant toxic effect; also recorded: cytotoxic | 1.02 ± 0.06 | – | – | – | – | – | – | – | – | – | – | – | –
